What was measured:
[1] = test system: wild type Arabidopsis thaliana leaves; assay: Phytohormone treatment of detached leaves, photosynthetic activity (Fv/Fm of PSII); format: in vivo; conditions: detached leaves at 12 DAE, 50 μM ABA or 50 μM MeJA in MES buffer pH 5.8, or 4.5 μM ethylene gas, three days at 22° C., continuous light
Procedure: (§1) In order to measure photosynthetic activities, a method of Oh S. A. et al., (Oh S. A. et al., Plant Mol. Biol. 30: 939, 1996) was used. First, the respective leaves were dark-treated for 15 minutes and measured for fluorescence of chlorophylls using a plant efficiency analyzer. The photosynthetic activity was expressed as photochemical efficiency of photosystemII (PSII) using a fluorescent property of chlorophylls. The photochemical efficiency was expressed as the ratio of maximum variable fluorescence (Fv) to maximum value of fluorescence (Fm) (Fv/Fm). As the ratio is increased, the photosynthesis efficiency improves.
(§2) Although senescence of leaves is known as a genetic programmed process, the initiation and progress of senescence can be changed by phytohormones, such as abscisic acid (ABA), methyl jasmonate (MeJA) and ethylene, that are plant growth inhibitory substances (Hensel et al., Plant Cell 5:553, 1993; Weidhase et al., Physiol. Plant 69:161, 1987; and Zeevaart et al, Annu. Rev. Plant Physiol. Plant Mol. Biol. 39:439, 1998). Thus, in this experiment, a change in leaf longevity of the ore9 mutant according to treatment with phytohormones was examined by measuring changes in photosynthetic activity and chlorophyll content. Detached leaves were floated in 3 mM 2-[N-morpholino]-ethanesulfonic acid (MES) buffer, pH 5.8, containing 50 μM ABA or 50 μM MeJA, while continuously being exposed to light. Treatment with ethylene was carried out by cultivation in a glass box containing 4.5 μM ethylene gas. The treatments with phytohormones as described above were carried out for three days at 22° C. with continuous exposure to light. At this time, 12 independent leaves at 12 DAE were used as samples, and the chlorophyll content and the photosynthetic activity were measured in the same manner as in Example 2.

[2] = test system: ore9 mutant leaves; format: in vivo, Arabidopsis thaliana; conditions: detached leaves at 12 DAE, 50 μM ABA or 50 μM MeJA in MES buffer pH 5.8, or 4.5 μM ethylene gas, three days at 22° C., continuous light
Procedure: as §1, §2

[3] = target: T1, GAL4-BD fusion of ORE9 (50-693), expressed from pGBT9-ORE9 (50-693) [2] (Arabidopsis thaliana); assay: yeast two-hybrid assay
T1 construct: Yeast two-hybrid bait expressed in yeast HF7c; also called ORE9 derivative from which the F-box region was removed

[4] = target: T2, 35S-labeled ORE9 (50-693), in vitro translated (Arabidopsis thaliana, UniProt Q9SIM9 50-693); assay: in vitro GST pull-down of 35S-labeled protein
T2 sequence: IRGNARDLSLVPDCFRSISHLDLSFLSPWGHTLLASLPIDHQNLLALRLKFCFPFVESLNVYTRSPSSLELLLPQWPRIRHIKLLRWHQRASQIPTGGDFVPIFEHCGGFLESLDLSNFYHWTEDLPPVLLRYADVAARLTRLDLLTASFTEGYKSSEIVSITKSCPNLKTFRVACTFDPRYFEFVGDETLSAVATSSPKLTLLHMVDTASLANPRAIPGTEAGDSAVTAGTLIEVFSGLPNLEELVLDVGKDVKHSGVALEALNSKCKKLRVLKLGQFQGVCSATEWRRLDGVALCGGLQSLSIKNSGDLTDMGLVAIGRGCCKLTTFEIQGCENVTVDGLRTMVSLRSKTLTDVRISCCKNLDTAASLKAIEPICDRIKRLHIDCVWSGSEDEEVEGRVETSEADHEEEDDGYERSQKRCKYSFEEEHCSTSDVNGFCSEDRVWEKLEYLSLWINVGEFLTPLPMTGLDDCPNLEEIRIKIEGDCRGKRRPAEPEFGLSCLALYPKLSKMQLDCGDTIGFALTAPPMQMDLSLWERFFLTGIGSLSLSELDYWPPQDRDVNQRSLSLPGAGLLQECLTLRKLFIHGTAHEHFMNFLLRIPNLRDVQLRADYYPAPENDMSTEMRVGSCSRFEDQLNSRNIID
Description: In order to examine that ORE9 protein or derivatives thereof directly bind with ASK1, a GST-ASK1 fusion protein and a ³⁵S-labeled ORE9 protein produced by in vitro translation were subjected to in vitro binding assay. To obtain a glutathione S-transferase (GST) protein and a GST-ASK1 fusion protein, a vector pGEX (APBiotech, Co.) and a vector pGEX-ASK1 were constructed, which express the above proteins, respectively. Artificial sequences represented by SEQ ID NO: 14 and SEQ ID NO: 15 were used as PCR primers to amplify a gene encoding the ASK1 fragment. The resulting PCR product was digested with EcoRI and NcoI restriction enzymes, and inserted into the restriction enzyme sites of the pGEX vector. Escherichia coli BL21(DE3) pLysS was transformed with the resulting two vectors, and GST and GST-ASK1 fusion proteins were expressed. The GST and GST-ASK1 fusion proteins were purified by chromatography with glutathione-Sepharose 4B beads. The purified proteins was subjected to electrophoresis with SDS-polyacryamide gets, dyed with Coomassie blue, and measured for their amount. […]
The proteins were quantitatively analyzed with SDS-PAGE and BAS radioanalytic imaging system (Japan). […]

[5] = target: T3, GAL4-BD fusion of ORE9 (1-49), expressed from pGBT9-ORE9 (1-49) [1] (Arabidopsis thaliana); assay: yeast two-hybrid assay, combination [1+4]
T3 construct: Yeast two-hybrid bait expressed in yeast HF7c; also called fragment containing only the F-box region of ORE9; pGBT-ORE9(1-49)[1]

CC/C=C\CC1C(=O)CCC1CC(=O)OC (stereo not drawn) [MeJA, methyl jasmonate]
photosynthetic activity after treatment [1]: 38%
photosynthetic ability maintained after treatment [2]: 70%

C=C [ethylene]
photosynthetic activity after treatment [1]: 54%
photosynthetic ability maintained after treatment [2]: 82%

CC1=CC(=O)CC(C)(C)[C@@]1(O)/C=C/C(C)=C\C(=O)O [ABA, abscisic acid]
photosynthetic activity after treatment [1]: 65%
photosynthetic ability maintained after treatment [2]: 93%

B1: GAL4-AD fusion of ASK1(1-160), expressed from pGAD424-ASK1(1-160) [3] (other, Arabidopsis, UniProt Q39255 1-160, looked up, not shown: large carriers)
chain: MSAKKIVLKSSDGESFEVEEAVALESQTIAHMVEDDCVDNGVPLPNVTSKILAKVIEYCKRHVEAAASKAEAVEGAATSDDDLKAWDADFMKIDQATLFELILAANYLNIKNLLDLTCQTVADMIKGKTPEEIRTTFNIKNDFTPEEEEEVRRENQWAFE
notes: range 1-160; also called Arabidopsis SKP1 homolog 1; pGAD-ASK1(1-160)[3]
binding result [3]: no binding

B2: GST-ASK1 fusion protein (other, Arabidopsis, UniProt Q39255 1-160, looked up, not shown: a dimerising Fc or GST)
chain: B1 chain
notes: also called GSK-ASK1
binding result [4]: no binding

B3: GAL4-AD fusion of ASK2(1-172), expressed from pGAD424-ASK2(1-172) [4] (other, Arabidopsis, UniProt Q9FHW7 1-171, looked up, not shown: large carriers)
chain: MSTVRKITLKSSDGENFEIDEAVALESQTIKHMIEDDCTDNGIPLPNVTSKILSKVIEYCKRHVEAAEKSETTADAAAATTTTTVASGSSDEDLKTWDSEFIKVDQGTLFDLILAANYLNIKGLLDLTCQTVADMIKGKTPEEIRKTFNIKNDFTPEEEEEVRRENQWAFE
notes: range 1-172; Yeast two-hybrid prey; also called Arabidopsis SKP1 homolog 2
binding result [5]: no binding

From US20040123344A1, “Novel gene encoding an f-box protein which regulates leaf longevity in arabidopsis thaliana and mutant gene thereof” (priority 2000, published 2004)
